Measurements from US6348317B1, “Fluorescent and DNA cleavage properties of peptide/dye conjugates” (The Arizona Board of Regents, priority 1999, dated 2002).

Legend:
GRE2 dsDNA = assay: Photocleavage at 514 nm, intensity dependence of guanine oxidation; type: biochemical; conditions: 160 nM duplex DNA, 200 nM TO-ZF, piperidine
Description: The purified DNA strands shown in FIG. 2 were 5′^-32P-end-labeled using T4 polynucleotide kinase and purified as described above. Oxygen removal was performed by bubbling argon through the samples. Irradiations were performed on […] samples in a 1.0 mL glass cuvette fit with a septum using an argon-ion laser at 514 nm with a power of 300 mW/cm^2. After irradiation, samples were divided in half and one portion treated with piperidine, the other immediately frozen. Piperidine treatment consisted of adding an equal volume of freshly prepared 20% piperidine in water to the sample followed by heating at 90° C. for 30 minutes. Both the treated and untreated fractions were dried under vacuum. To each dried sample was added […] of 80% formamide in water. The products of the photocleavage experiments were analyzed on a 15% polyacrylamide (19:1) vertical sequencing gel with dimensions 21 cm×40 cm×0.4 mm. […] Gels were dried and exposed to a phosphorimaging screen for 4 hours and analyzed on a Molecular Dynamics Storm-840 gel scanner in phosphorimaging mode.
Photocleavage of TO-ZF conjugate. […] After irradiation of TO-ZF bound to dsDNA in Tris buffer solution at 514 nm (514 nm is in the main band of the absorbance spectrum of intercalated thiazole orange as shown in FIG. 3), the photo-products were denatured and separated using denaturing polyacrylamide gel electrophoresis (PAGE). […]

GRE3 dsDNA = assay: Photocleavage at 514 nm, PAGE analysis; type: biochemical
Description: The purified DNA strands shown in FIG. 2 were 5′^-32P-end-labeled using T4 polynucleotide kinase and purified as described above. Oxygen removal was performed by bubbling argon through the samples. Irradiations were performed on […] samples in a 1.0 mL glass cuvette fit with a septum using an argon-ion laser at 514 nm with a power of 300 mW/cm^2. After irradiation, samples were divided in half and one portion treated with piperidine, the other immediately frozen. Piperidine treatment consisted of adding an equal volume of freshly prepared 20% piperidine in water to the sample followed by heating at 90° C. for 30 minutes. Both the treated and untreated fractions were dried under vacuum. To each dried sample was added […] of 80% formamide in water. The products of the photocleavage experiments were analyzed on a 15% polyacrylamide (19:1) vertical sequencing gel with dimensions 21 cm×40 cm×0.4 mm. Maxam-Gilbert A+G and C+T sequencing reactions were used as a reference. A. M. Maxam, et al., Meth. Enzymol. 65:499-560 (1980). Gels were run at 2000V for 1.5-2 hours. Gels were dried and exposed to a phosphorimaging screen for 4 hours and analyzed on a Molecular Dynamics Storm-840 gel scanner in phosphorimaging mode.
Photocleavage of TO-ZF conjugate. We examined the photoinduced cleavage of 5′-32P-end-labeled dsDNA fragments containing the dsDNA sequences GRE1, GRE2 and GRE3 in the presence of either unconjugated TO or TO-ZF. […] We have performed similar photocleavage measurements of the complementary strands in the dsDNA duplexes used in each case. […] After irradiation of TO-ZF bound to dsDNA in Tris buffer solution at 514 nm (514 nm is in the main band of the absorbance spectrum of intercalated thiazole orange as shown in FIG. 3), the photo-products were denatured and separated using denaturing polyacrylamide gel electrophoresis (PAGE). […]
To explore other possible mechanisms of thiazole orange mediated photocleavage in the region on the 5′-side of the GRE target sequence, the guanine located within the GRE (5′-TGTTCT-3′) in the GRE1 dsDNA fragment was changed to an adenine to give GRE3 (FIG. 2). […] Fluorescence measurements of TO-ZF binding to GRE1 and GRE3 target sequences (FIG. 5A) show only a modest difference in the dissociation constant between the two sequences. Thus the measured changes in the photocleavage products between GRE1 and GRE3 are not an artifact of strong differences in the binding affinity of TO-ZF between these sequences. […] The total chemical yield of the piperidine dependent reactions in these bands, measured as the number of fluorescence counts in product bands divided by the total counts of a given lane, increased three-fold from 2% in GRE1 (described above) to 6% in GRE3 for samples reacted in the presence of oxygen. […]

[1] = system: 5′-32P-end-labeled GRE2 duplex DNA; assay: Radical hydroxyl footprinting; type: binding; conditions: 60 minutes in the dark at 25° C., 60 seconds reaction
Description: The protocol for radical hydroxyl footprinting reactions was adapted from previously established methods, A. Revzin, Ed., Separation, Detection and Characterization of Biological Macromolecules (1993); P. E. Nielsen, J. Molec. Recog. 3:1-25 (1990). Reaction samples comprised of the TO-ZF and 5′^-32P-end-labeled GRE2 in 20 mM Tris (pH 7.9), 40 mM NaCl, 20 mM KCl, 1 mM MgCl2 were allowed to equilibrate in the dark at room temperature for 60 minutes. Equal volumes of a freshly prepared solution of 0.2 mM [Fe(EDTA)]^2− was mixed with a 0.3% H2O2 solution and a 10 mM sodium ascorbate solution and added to the reaction sample. After a one minute incubation, the reactions were quenched with an aqueous solution of 20 mM thiourea and 10 mg/ml tRNA. The footprinting reactions were analyzed on a 15% denaturing polyacrylamide gel.
Footprinting of TO-ZF Conjugate. DNA footprinting by the TO-ZF conjugate was performed to determine if the TO-ZF conjugate was binding the same sequence as the native glucocorticoid receptor protein DNA-binding domain. More specifically, reaction samples (Maxam-Gilbert A+G and C+T sequencing reactions, radical hydroxyl cleavage of GRE2 in the presence of TO-ZF, radical hydroxyl cleavage of GRE2 in the absence of TO-ZF) contained […] duplex DNA and […] TO-ZF, 20 mM Tris (pH 7.9), 40 mM NaCl, 20 mM KCl, 1 mM MgCl2. […]

TO-ZF: 29 amino acid single zinc finger from residues 438-465 of glucocorticoid receptor, thiazole orange coupled to a lysine ε-amine
preferential site of photocleavage (GRE2 dsDNA): Preferential cleavage is observed at the 5′-G of the GG sequence | pattern of photo-induced cleavage (GRE3 dsDNA; 514 nm, gel electrophoresis): a confined group of bands flanking the altered GRE sequence which are only partially piperidine dependent | increase in band intensity of strand cleavage in the presence of D2O (GRE3 dsDNA; D2O rather than H2O in the buffer): ≤ 25% | lowering of chemical yield in the absence of oxygen (GRE3 dsDNA; piperidine treated samples, absence of oxygen): 10-20% | total chemical yield of the piperidine dependent reactions (GRE3 dsDNA; samples reacted in the presence of oxygen): 6% | region protected from radical hydroxyl cleavage [1]: protects a four base pair region (TTCT) within the native GRE binding sequence
